{"source": "paper PMC9841576", "about": "“Characterisation of C101248: A novel selective THIK-1 channel inhibitor for the modulation of microglial NLRP3-inflammasome” (Neuropharmacology, 2023)", "assay_type_in_all_cases": "cell-based, mouse", "key": {"[1]": {"tested_on": "other constitutively active resting conductance in microglia", "assay": "Whole-cell patch clamp of microglia in hippocampal slices: other resting and voltage-dependent currents", "conditions": "5 μM", "experimental": "Acute hippocampal slices (300 μm thick), from 3 to 4 months old mice, were prepared using a specially adapted protective slicing solution ([Ting et al., 2014]) containing (mM) 93 choline chloride, 20 HEPES, 30 NaHCO3, 2.5 KCl, 0.5 CaCl2, 10 MgCl2, 1.2 NaH2PO4, 25 glucose, 1 kynurenic acid, 5 Na-ascorbate, 3 Na-pyruvate, pH adjusted to 7.4, bubbled with 95% O2/5% CO2 and cooled at <4 °C, and a recovery solution containing (mM) 92 NaCl, 20 HEPES, 30 NaHCO3, 2.5 KCl, 2 CaCl2, 1 MgCl2, 1.2 NaH2PO4, 25 glucose, 1 kynurenic acid, 5 Na-ascorbate, 3 Na-pyruvate, pH set to 7.4 and bubbled with 95% O2/5% CO2\nImmediately after slicing, slices were placed for 13 min in warm (33–35 °C) slicing solution and then transferred to recovery solution at room temperature until experimental usage. […] Slices were perfused with bicarbonate-buffered solution, at 34–36 °C for all experiments, containing (mM) 124 NaCl, 2.5 KCl, 26 NaHCO3, 1 NaH2PO4, 2 CaCl2, 1 MgCl2, 10 glucose, bubbled with 95% O2/5% CO2. Microglia were whole-cell clamped with electrodes containing K-gluconate based solution, comprising (mM) 130 K-glu, 4 NaCl, 1 CaCl2, 10 HEPES, 10 EGTA, 4 MgATP, 0.5 Na2GTP, pH set to 7.2 with KOH and osmolarity adjusted to […]. […] Currents were filtered at 1 kHz, digitized (10 kHz) and analysed off-line using pClamp10 software."}, "[2]": {"tested_on": "NLRP3-dependent release of IL-1β", "assay": "IL-1β release from LPS-primed neonatal microglia exposed to K+-free buffer", "experimental": "In brief, brains were dissected by removing meninges, cerebellum, and olfactory bulbs before tissue was finely minced with a scalpel then digested with papain solution for 20 min at 37 °C. Tissue was dissociated and the resulting cell suspension was passed through a 40 μm cell strainer (Greiner Bio-One). Cells were centrifuged at 300 g for 5 min then resuspended in culture medium (DMEM, 10% FBS, 1% PenStrep) and plated in T75 collagen-coated flasks (Greiner Bio-One). A full medium change was caried out on day 2 while a half medium was changed on day 5 in the presence of 5 ng/ml of mouse GM-CSF (R&D Systems). Microglia were shaken off between day 9 and 11 and plated onto poly-D-lysine coated 96-well plates (μclear, Greiner Bio-One) at a density of 20,000 cells/well.\n(§1) IL-1β from culture supernatants was measured with DuoSet ELISA kit (R&D Systems) following the manufacturer instructions."}, "[3]": {"tested_on": "NLRP3-dependent release of IL-1β", "assay": "LPS/ATP-induced IL-1β release from adult microglia", "conditions": "0.1 and 1 μM", "experimental": "Microglia were isolated from C57BL/6 male and female mice aged 6–10 weeks (Charles River, UK) as previously described ([Drinkall et al., 2022]). In brief, brains were isolated, minced, and digested using a Neural Tissue Dissociation Kit (Miltenyi Biotec Ltd., UK) according to manufacturer's instructions. The resulting suspension was dissociated using a Dounce tissue grinder (Sigma). Myelin was removed by centrifuging cell suspension in 33% Percoll (GE Healthcare) for 10 min at 1000 g with low break and aspiration of myelin layer. Cells were pelleted by diluting 1:4 in Ca^2+/Mg^2+ free Hank's balanced salt solution (CMF-HBSS, Gibco) and centrifuged for 10 min at 500 g. […] The eluted microglia were counted and plated onto 96-well Cell + plates (Sarstedt) at a density of 30,000 cells per well in culture medium (DMEM/F12, 10% FBS, 1% PenStrep, 2 mM glutamine, 20 ng/ml IL-34 (R&D Systems), and 50 ng/ml transforming growth factors-β1 (Miltenyi Biotec Ltd., UK)). […]\nas §1"}}, "data": [{"smiles": "Nc1nonc1-c1nc2ccccc2n1Cc1ccncc1", "note": "[C101248]", "values": [{"measurement": "effect on baseline membrane current in THIK-1 KO mice", "setting": "[1]; microglia voltage-clamped at 0 mV, THIK-1 KO mice", "value": "no further changes"}, {"measurement": "effect on inward or outward currents induced by depolarising voltage steps", "setting": "[1]; voltage steps −150 mV to +60 mV", "value": "no effect"}, {"measurement": "reduction of IL-1β release", "setting": "[2]; 10 μM, wild type neonatal microglia, K+-free buffer", "value": "~55", "unit": "%"}, {"measurement": "IC50", "setting": "[2]; Mus musculus, wild-type neonatal microglia, LPS-primed, K+-free buffer, read-out: IC50, inhibition of IL-1β release", "value": 106, "unit": "nM"}, {"measurement": "effect on K+-free buffer-induced release of IL-1β in THIK-1 KO microglia", "setting": "[2]; THIK-1 KO neonatal microglia, 10 μM", "value": "no impact"}, {"measurement": "effect on LPS/ATP-induced IL-1β release", "setting": "[3]", "value": "significantly attenuated"}]}]}
